How the values were obtained:
Format in all cases: in vivo
[1] = tested on: umbrella sedge (Cyperus difformis); assay: Test B flooded paddy test; settings: for Plant response rating, Flood, Sedge, Umbrella: 250 g ai/ha, flooded paddy test, visual rating on 0 to 100 scale (0 no effect, 100 complete control) after 13 to 15 days; for Plant response rating, Sedge, Umbrella: Flood (flooded paddy test), 13 to 15 days; for Sedge, Umbrella plant response rating: Flood, 31 g ai/ha, scale 0 to 100 (0 no effect, 100 complete control)
Procedure, shortened: (§1)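 Visual scores run from 0 (no effect) to 100 (complete control), assigned by comparison with controls 13 to 15 days after treatment. Test compounds went straight into water standing 3 cm above the soil, around plants at the 2-leaf stage kept in a greenhouse.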

[2] = tested on: rice (Oryza sativa); assay: Test B flooded paddy test; settings: for Plant response rating, Flood, Rice: 250 g ai/ha, flooded paddy test, visual rating on 0 to 100 scale (0 no effect, 100 complete control) after 13 to 15 days; for Plant response rating, Rice: Flood (flooded paddy test), 13 to 15 days; for Rice plant response rating: Flood, 31 g ai/ha, scale 0 to 100 (0 no effect, 100 complete control)
Procedure, shortened: as §1

[3] = tested on: ducksalad (Heteranthera limosa); assay: Test B flooded paddy test; settings: for Plant response rating, Flood, Ducksalad: 250 g ai/ha, flooded paddy test, visual rating on 0 to 100 scale (0 no effect, 100 complete control) after 13 to 15 days; for Plant response rating, Ducksalad: Flood (flooded paddy test), 13 to 15 days; for Ducksalad plant response rating: Flood, 31 g ai/ha, scale 0 to 100 (0 no effect, 100 complete control)
Procedure, shortened: as §1

[4] = tested on: barnyardgrass (Echinochloa crus-galli); assay: Test B flooded paddy test; settings: for Plant response rating, Flood, Barnyardgrass: 250 g ai/ha, flooded paddy test, visual rating on 0 to 100 scale (0 no effect, 100 complete control) after 13 to 15 days; for Plant response rating, Barnyardgrass: Flood (flooded paddy test), 13 to 15 days; for Barnyardgrass plant response rating: Flood, 31 g ai/ha, scale 0 to 100 (0 no effect, 100 complete control)
Procedure, shortened: as §1

[5] = tested on: giant foxtail (Setaria faberii); assay: Test A pre-/postemergence plant response; settings: for Foxtail, Giant plant response rating: visual injury, 0 to 100 scale (0 no effect, 100 complete control), approx. ten days
Procedure, shortened: (§2)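 Greenhouse pots of loam/sand received directed preemergence soil sprays or postemergence sprays (plants 2–10 cm, 1–2 leaf stage), compounds formulated in non-phytotoxic solvent with surfactant. Injury was rated visually versus untreated controls after about ten days on a 0 (no effect) to 100 (complete control) scale.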

[6] = tested on: velvetleaf (Abutilon theophrasti); assay: Test A pre-/postemergence plant response; settings: for Velvetleaf plant response rating: visual injury, 0 to 100 scale (0 no effect, 100 complete control), approx. ten days
Procedure, shortened: as §2

[7] = tested on: wheat (Triticum aestivum); assay: Test A pre-/postemergence plant response; settings: for Wheat plant response rating: visual injury, 0 to 100 scale (0 no effect, 100 complete control), approx. ten days
Procedure, shortened: as §2

[8] = tested on: corn (Zea mays); assay: Test A pre-/postemergence plant response; settings: for Corn plant response rating: visual injury, 0 to 100 scale (0 no effect, 100 complete control), approx. ten days
Procedure, shortened: as §2

[9] = tested on: large crabgrass (Digitaria sanguinalis); assay: Test A pre-/postemergence plant response; settings: for Crabgrass, Large plant response rating: visual injury, 0 to 100 scale (0 no effect, 100 complete control), approx. ten days
Procedure, shortened: as §2

[10] = tested on: pigweed (Amaranthus retroflexus); assay: Test A pre-/postemergence plant response; settings: for Pigweed plant response rating: visual injury, 0 to 100 scale (0 no effect, 100 complete control), approx. ten days
Procedure, shortened: as §2

[11] = tested on: morningglory (Ipomoea spp.); assay: Test A pre-/postemergence plant response; settings: for Morningglory plant response rating: visual injury, 0 to 100 scale (0 no effect, 100 complete control), approx. ten days
Procedure, shortened: as §2

[12] = tested on: barnyardgrass (Echinochloa crus-galli); assay: Test A pre-/postemergence plant response; settings: for Barnyardgrass plant response rating: visual injury, 0 to 100 scale (0 no effect, 100 complete control), approx. ten days
Procedure, shortened: as §2

[13] = 62 g ai/ha, scale of 0 to 100 where 0 is no effect and 100 is complete control
[14] = 125 g ai/ha, scale 0 to 100, 0 is no effect, 100 is complete control
[15] = Postemergence, 125 g ai/ha, 0 to 100 scale where 0 is no effect and 100 is complete control
[16] = Preemergence, 125 g ai/ha, 0 to 100 scale, 0 = no effect, 100 = complete control
[17] = Preemergence, 500 g ai/ha, 0 to 100 scale, 0 = no effect, 100 = complete control

## O=C1CCCC(O)=C1C(=O)c1cnc(-c2ccccc2)n(CCC(F)(F)F)c1=O [Compound 207]
[1]
  Plant response rating, Flood, Sedge, Umbrella: 70
  Sedge, Umbrella plant response rating: 0
[1]; [13]
  Plant response rating, Sedge, Umbrella: 40
[1]; [14]
  Plant response rating, Sedge, Umbrella: 60
[2]
  Plant response rating, Flood, Rice: 15
  Rice plant response rating: 0
[2]; [13]
  Plant response rating, Rice: 0
[2]; [14]
  Plant response rating, Rice: 15
[3]
  Plant response rating, Flood, Ducksalad: 50
  Ducksalad plant response rating: 0
[3]; [13]
  Plant response rating, Ducksalad: 0
[3]; [14]
  Plant response rating, Ducksalad: 0
[4]
  Plant response rating, Flood, Barnyardgrass: 20
  Barnyardgrass plant response rating: 0
[4]; [13]
  Plant response rating, Barnyardgrass: 0
[4]; [14]
  Plant response rating, Barnyardgrass: 0
[5]; [15]
  Plant response rating, Foxtail, Giant: 60
[5]; Postemergence, 500 g ai/ha
  Foxtail, Giant plant response rating: 90
[5]; [16]
  Plant response rating, Foxtail, Giant: 30
[5]; [17]
  Plant response rating, Foxtail, Giant: 80
[6]; [15]
  Plant response rating, Velvetleaf: 100
[6]; Postemergence, 500 g ai/ha
  Velvetleaf plant response rating: 100
[6]; [16]
  Plant response rating, Velvetleaf: 70
[6]; [17]
  Plant response rating, Velvetleaf: 100
[7]; [15]
  Plant response rating, Wheat: 0
[7]; Postemergence, 500 g ai/ha
  Wheat plant response rating: 0
[7]; [16]
  Plant response rating, Wheat: 0
[7]; [17]
  Plant response rating, Wheat: 0
[8]; [15]
  Plant response rating, Corn: 0
[8]; Postemergence, 500 g ai/ha
  Corn plant response rating: 30
[8]; [16]
  Plant response rating, Corn: 0
[8]; [17]
  Plant response rating, Corn: 0
[9]; [15]
  Plant response rating, Crabgrass, Large: 60
[9]; Postemergence, 500 g ai/ha
  Crabgrass, Large plant response rating: 90
[9]; [16]
  Plant response rating, Crabgrass, Large: 60
[9]; [17]
  Plant response rating, Crabgrass, Large: 100
[10]; [15]
  Plant response rating, Pigweed: 100
[10]; Postemergence, 500 g ai/ha
  Pigweed plant response rating: 100
[10]; [16]
  Plant response rating, Pigweed: 80
[10]; [17]
  Plant response rating, Pigweed: 100
[11]; [15]
  Plant response rating, Morningglory: 40
[11]; Postemergence, 500 g ai/ha
  Morningglory plant response rating: 80
[11]; [16]
  Plant response rating, Morningglory: 0
[11]; [17]
  Plant response rating, Morningglory: 70
[12]; [15]
  Plant response rating, Barnyardgrass: 60
[12]; Postemergence, 500 g ai/ha
  Barnyardgrass plant response rating: 90
[12]; [16]
  Plant response rating, Barnyardgrass: 10
[12]; [17]
  Plant response rating, Barnyardgrass: 50

## Cc1ccccc1-n1c(-c2cccc(Br)c2)ncc(C(=O)C2=C(O)CCCC2=O)c1=O [Compound 209]
[1]
  Plant response rating, Flood, Sedge, Umbrella: 80
  Sedge, Umbrella plant response rating: 0
[1]; [13]
  Plant response rating, Sedge, Umbrella: 50
[1]; [14]
  Plant response rating, Sedge, Umbrella: 70
[2]
  Plant response rating, Flood, Rice: 20
  Rice plant response rating: 0
[2]; [13]
  Plant response rating, Rice: 0
[2]; [14]
  Plant response rating, Rice: 10
[3]
  Plant response rating, Flood, Ducksalad: 85
  Ducksalad plant response rating: 0
[3]; [13]
  Plant response rating, Ducksalad: 50
[3]; [14]
  Plant response rating, Ducksalad: 85
[4]
  Plant response rating, Flood, Barnyardgrass: 20
  Barnyardgrass plant response rating: 0
[4]; [13]
  Plant response rating, Barnyardgrass: 0
[4]; [14]
  Plant response rating, Barnyardgrass: 0
[5]; [15]
  Plant response rating, Foxtail, Giant: 60
[5]; Postemergence, 500 g ai/ha
  Foxtail, Giant plant response rating: 100
[5]; [16]
  Plant response rating, Foxtail, Giant: 10
[5]; [17]
  Plant response rating, Foxtail, Giant: 60
[6]; [15]
  Plant response rating, Velvetleaf: 100
[6]; Postemergence, 500 g ai/ha
  Velvetleaf plant response rating: 100
[6]; [16]
  Plant response rating, Velvetleaf: 60
[6]; [17]
  Plant response rating, Velvetleaf: 100
[7]; [15]
  Plant response rating, Wheat: 0
[7]; Postemergence, 500 g ai/ha
  Wheat plant response rating: 0
[7]; [16]
  Plant response rating, Wheat: 0
[7]; [17]
  Plant response rating, Wheat: 0
[8]; [15]
  Plant response rating, Corn: 0
[8]; Postemergence, 500 g ai/ha
  Corn plant response rating: 40
[8]; [16]
  Plant response rating, Corn: 0
[8]; [17]
  Plant response rating, Corn: 20
[9]; [15]
  Plant response rating, Crabgrass, Large: 50
[9]; Postemergence, 500 g ai/ha
  Crabgrass, Large plant response rating: 100
[9]; [16]
  Plant response rating, Crabgrass, Large: 20
[9]; [17]
  Plant response rating, Crabgrass, Large: 70
[10]; [15]
  Plant response rating, Pigweed: 60
[10]; Postemergence, 500 g ai/ha
  Pigweed plant response rating: 100
[10]; [16]
  Plant response rating, Pigweed: 0
[10]; [17]
  Plant response rating, Pigweed: 70
[11]; [15]
  Plant response rating, Morningglory: 30
[11]; Postemergence, 500 g ai/ha
  Morningglory plant response rating: 100
[11]; [16]
  Plant response rating, Morningglory: 0
[11]; [17]
  Plant response rating, Morningglory: 30
[12]; [15]
  Plant response rating, Barnyardgrass: 80
[12]; Postemergence, 500 g ai/ha
  Barnyardgrass plant response rating: 100
[12]; [16]
  Plant response rating, Barnyardgrass: 0
[12]; [17]
  Plant response rating, Barnyardgrass: 50

— patent US8952024B2, “Herbicidal pyrimidone derivatives” (E I du Pont de Nemours and Company, priority 2009, dated 2015)
